{"source": "patent US20260132125A1", "about": "“PESTICIDALLY ACTIVE FUSED BICYCLIC HETEROAROMATIC COMPOUNDS” (priority 2022, published 2026)", "assay_type_in_all_cases": "in vivo", "key": {"Spodoptera littoralis": {"tested_on": "Spodoptera littoralis", "experiment": "Example B6: activity against Spodoptera littoralis (Egyptian cotton leaf worm), cotton leaf discs", "conditions": "foliar, 72 h, 200 ppm, L1 larvae, 3 days after infestation, read-out: control (at least one of mortality, anti-feedant effect, growth inhibition)", "method_in_brief": "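Leaf discs on agar; spray, aqueous dilution of 10′000 ppm DMSO stock; dry; 5 L1 larvae/disc. Read at 3 d post-infestation: mortality, antifeedant, growth inhibition vs untreated. Control = ≥1 category above untreated.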"}, "Chilo suppressalis": {"tested_on": "Chilo suppressalis", "experiment": "Example B1: activity against Chilo suppressalis (striped rice stemborer), artificial diet", "conditions": "144 h, 200 ppm, L2 larvae, 6 days after infestation, read-out: control (at least one of mortality, anti-feedant effect, growth inhibition)", "method_in_brief": "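Scoring covers mortality, anti-feedant effect and growth inhibition at 6 days post-infestation, relative to untreated diet, with activity defined as at least one category above untreated. Test solutions were aqueous, made from 10'000 ppm DMSO stocks, and applied to artificial diet before drying and infestation with L2 larvae.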"}, "Euschistus heros": {"tested_on": "Euschistus heros", "experiment": "Example B3: activity against Euschistus heros (neotropical brown stink bug), soybean leaves", "conditions": "for percent effect (mortality or growth inhibition) at 200 ppm: 120 h, N2 nymphs, 5 days after infestation, read-out: effect in at least one of the two categories (mortality or growth inhibition)", "experimental": "Soybean leaves on agar in 24-well microtiter plates were sprayed with aqueous test solutions prepared from 10′000 ppm DMSO stock solutions. After drying the leaves were infested with N2 nymphs. The samples were assessed for mortality and growth inhibition in comparison to untreated samples 5 days after infestation. The following compounds gave an effect of at least 80% in at least one of the two categories (mortality or growth inhibition) at an application rate of 200 ppm: […]"}, "Plutella xylostella [1]": {"tested_on": "Plutella xylostella", "experiment": "Example B5: activity against Plutella xylostella (diamond back moth), artificial diet, eggs", "conditions": "192 h, 8 days after infestation, read-out: effect in at least one of the two categories (mortality or growth inhibition)", "method_in_brief": "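Artificial diet in 24-well plates was treated with aqueous dilutions of DMSO stocks, dried, then infested with Plutella eggs. Mortality and growth inhibition were scored against untreated samples 8 days after infestation; application rate 200 ppm.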"}, "Diabrotica balteata": {"tested_on": "Diabrotica balteata", "experiment": "Example B2: activity against Diabrotica balteata (corn root worm), maize sprouts", "conditions": "96 h, L2 larvae, 4 days after infestation, read-out: effect in at least one of the two categories (mortality or growth inhibition)", "method_in_brief": "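Maize sprouts on agar were sprayed with aqueous test solutions made from 10′000 ppm DMSO stocks, dried, then infested with 6–10 L2 larvae per well. Mortality and growth inhibition were scored against untreated samples 4 days after infestation, at an application rate of 200 ppm.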"}, "Myzus persicae [2]": {"tested_on": "Myzus persicae", "experiment": "Example B4: activity against Myzus persicae (green peach aphid), intrinsic activity", "conditions": "120 h, test rate 12 ppm, 5 days after infestation", "method_in_brief": "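Compounds from 10′000 ppm DMSO stocks were mixed into sucrose solution in 24-well plates sealed with Parafilm. Aphid-infested pea seedlings were set on the membrane and the plate inverted so aphids fed through it. Mortality scored 5 days after infestation.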"}, "Myzus persicae [3]": {"tested_on": "Myzus persicae", "experiment": "Example B7b: Myzus persicae feeding/contact activity, eggplant leaf discs", "conditions": "foliar, 144 h, mixed ages, 6 days after infestation", "experimental": "Eggplant leaf discs were placed onto agar in a 24-well microtiter plate and sprayed with aqueous test solutions prepared from 10′000 ppm DMSO stock solutions. After drying, the leaf discs were infested with an aphid population of mixed ages. The samples were assessed for mortality 6 days after infestation."}, "Pseudoplusia includens": {"tested_on": "Pseudoplusia includens", "experiment": "Example B9: Pseudoplusia includens (soybean looper), larvicide, feeding/contact, soybean plants", "conditions": "Chrysodeixis includens", "experimental": "Soybean plants were treated in a spray chamber, cut off and placed into petri dishes containing wet filter paper. 1d after application leaves were infested with 5 L2 larvae and covered with a fabric filter and plastic lids. 5 days after infestation the samples were assessed for mortality and growth inhibition. The following compounds gave an effect of at least 80% in at least one of the two categories (mortality or growth inhibition) at an application rate of 50 ppm: […]"}, "Plutella xylostella [4]": {"tested_on": "Plutella xylostella", "experiment": "B14b: Plutella xylostella (diamond back moth), larvicide L3, feeding/contact, Chinese cabbage", "conditions": "0.8 ppm", "text": "Activity of compounds P5, P17 and P21 according to the preparatory examples and of a compound from WO 21/083936 against Spodoptera littoralis (Example B6 above), Chilo suppressalis (Example B1 above), Diabrotica balteata (Example B14a below), Plutella xylostella (Example B14b below) and Pseudoplusia includens (Example B9 above) is summarized in Table B14. B14a: Diabrotica balteata (Corn root worm). Larvicide, feeding/contact 3 Corn seedlings were placed on wetted filter paper in plastic cups, and 3 ml of diluted test solutions were pipetted onto them. The cups were infested with 10 L2 larvae and checked for mortality and growth regulation 5 days after treatment. B14b: Plutella xylostella (Diamond back moth). Larvicide L3, feeding/contact Chinese cabbage plants were sprayed with diluted test solutions in an application chamber. Cut off leaves were placed into petri dishes with wetted filter paper and infested 1 day after application with 10 L3 larvae. Samples were assessed 4 days after infestation for mortality and growth regulation."}}, "data": [{"smiles": "C[C@H](Nc1ncnc2c(S(=O)(=O)C(F)(F)F)cc(Cl)cc12)c1ncnn1-c1cc(C(N)=O)ncn1", "note": "[Compound P59, 6-[5-[(1S)-1-[[6-chloro-8-(trifluoromethylsulfonyl)quinazolin-4-yl]amino]ethyl]-1,2,4-triazol-1-yl]pyrimidine-4-carboxamide]", "values": [{"measurement": "percent control (mortality, anti-feedant effect or growth inhibition) at 200 ppm", "setting": "Spodoptera littoralis", "value": "≥ 80", "unit": "%"}, {"measurement": "percent control (mortality, anti-feedant effect or growth inhibition) at 200 ppm", "setting": "Chilo suppressalis", "value": "≥ 80", "unit": "%"}, {"measurement": "percent effect (mortality or growth inhibition) at 200 ppm", "setting": "Euschistus heros", "value": "≥ 80", "unit": "%"}, {"measurement": "percent effect (mortality or growth inhibition) at 200 ppm", "setting": "Plutella xylostella [1]", "value": "≥ 80", "unit": "%"}, {"measurement": "percent effect (mortality or growth inhibition) at 200 ppm", "setting": "Diabrotica balteata", "value": "≥ 80", "unit": "%"}, {"measurement": "mortality at 12 ppm", "setting": "Myzus persicae [2]", "value": "≥ 80", "unit": "%"}, {"measurement": "mortality at 200 ppm", "setting": "Myzus persicae [3]", "value": "≥ 80", "unit": "%"}]}, {"smiles": "CNC(=O)c1cc(-n2ncnc2[C@H](C)N(C)c2ncnc3c(S(=O)(=O)C(F)(F)F)cc(Cl)cc23)ncn1", "note": "[Compound P61]", "values": [{"measurement": "percent effect (mortality or growth inhibition) at 50 ppm", "setting": "Pseudoplusia includens; 120 h, 50 ppm, L2 larvae, 5 days after infestation, read-out: effect in at least one of the two categories (mortality or growth inhibition)", "value": "≥ 80", "unit": "%"}, {"measurement": "percent control (mortality, anti-feedant effect or growth inhibition) at 200 ppm", "setting": "Spodoptera littoralis", "value": "≥ 80", "unit": "%"}, {"measurement": "percent control (mortality, anti-feedant effect or growth inhibition) at 200 ppm", "setting": "Chilo suppressalis", "value": "≥ 80", "unit": "%"}, {"measurement": "percent effect (mortality or growth inhibition) at 200 ppm", "setting": "Euschistus heros", "value": "≥ 80", "unit": "%"}, {"measurement": "percent effect (mortality or growth inhibition) at 200 ppm", "setting": "Plutella xylostella [1]", "value": "≥ 80", "unit": "%"}, {"measurement": "percent effect (mortality or growth inhibition) at 200 ppm", "setting": "Diabrotica balteata", "value": "≥ 80", "unit": "%"}, {"measurement": "mortality at 12 ppm", "setting": "Myzus persicae [2]", "value": "≥ 80", "unit": "%"}, {"measurement": "mortality at 200 ppm", "setting": "Myzus persicae [3]", "value": "≥ 80", "unit": "%"}]}, {"smiles": "C[C@H](Nc1ncnc2c(C(F)(F)F)cc(Cl)cc12)c1ncnn1-c1cc(C(=O)N(C)C2CC2)ncn1", "note": "[Compound P63, 6-[5-[(1S)-1-[[6-chloro-8-(trifluoromethyl)quinazolin-4-yl]amino]ethyl]-1,2,4-triazol-1-yl]-N-cyclopropyl-N-methyl-pyrimidine-4-carboxamide]", "values": [{"measurement": "percent control (mortality, anti-feedant effect or growth inhibition) at 200 ppm", "setting": "Spodoptera littoralis", "value": "≥ 80", "unit": "%"}, {"measurement": "percent control (mortality, anti-feedant effect or growth inhibition) at 200 ppm", "setting": "Chilo suppressalis", "value": "≥ 80", "unit": "%"}, {"measurement": "percent effect (mortality or growth inhibition) at 200 ppm", "setting": "Euschistus heros", "value": "≥ 80", "unit": "%"}, {"measurement": "percent effect (mortality or growth inhibition) at 200 ppm", "setting": "Plutella xylostella [1]", "value": "≥ 80", "unit": "%"}, {"measurement": "percent effect (mortality or growth inhibition) at 200 ppm", "setting": "Diabrotica balteata", "value": "≥ 80", "unit": "%"}, {"measurement": "mortality at 12 ppm", "setting": "Myzus persicae [2]", "value": "≥ 80", "unit": "%"}, {"measurement": "mortality at 200 ppm", "setting": "Myzus persicae [3]", "value": "≥ 80", "unit": "%"}]}, {"smiles": "C[C@@H](c1ncnn1-c1cc(C(N)=O)ncn1)N(C)c1ncnc2c(S(=O)(=O)C(F)(F)F)cc(Cl)cc12", "note": "[Compound P67, 6-[5-[(1S)-1-[[6-chloro-8-(trifluoromethylsulfonyl)quinazolin-4-yl]-methyl-amino]ethyl]-1,2,4-triazol-1-yl]pyrimidine-4-carboxamide]", "values": [{"measurement": "percent control (mortality, anti-feedant effect or growth inhibition) at 200 ppm", "setting": "Spodoptera littoralis", "value": "≥ 80", "unit": "%"}, {"measurement": "percent control (mortality, anti-feedant effect or growth inhibition) at 200 ppm", "setting": "Chilo suppressalis", "value": "≥ 80", "unit": "%"}, {"measurement": "percent effect (mortality or growth inhibition) at 200 ppm", "setting": "Euschistus heros", "value": "≥ 80", "unit": "%"}, {"measurement": "percent effect (mortality or growth inhibition) at 200 ppm", "setting": "Plutella xylostella [1]", "value": "≥ 80", "unit": "%"}, {"measurement": "percent effect (mortality or growth inhibition) at 200 ppm", "setting": "Diabrotica balteata", "value": "≥ 80", "unit": "%"}, {"measurement": "mortality at 12 ppm", "setting": "Myzus persicae [2]", "value": "≥ 80", "unit": "%"}, {"measurement": "mortality at 200 ppm", "setting": "Myzus persicae [3]", "value": "≥ 80", "unit": "%"}]}, {"smiles": "C[C@@H](c1ncnn1-c1cc(C(=O)N(C)C)ncn1)N(C)c1ncnc2c(C(F)(F)F)cc(Cl)cc12", "note": "[Compound P82, 6-[5-[(1S)-1-[[6-chloro-8-(trifluoromethyl)quinazolin-4-yl]-methyl-amino]ethyl]-1,2,4-triazol-1-yl]-N,N-dimethyl-pyrimidine-4-carboxamide]", "values": [{"measurement": "percent control (mortality, anti-feedant effect or growth inhibition) at 200 ppm", "setting": "Spodoptera littoralis", "value": "≥ 80", "unit": "%"}, {"measurement": "percent effect (mortality or growth inhibition) at 200 ppm", "setting": "Plutella xylostella [1]", "value": "≥ 80", "unit": "%"}, {"measurement": "percent effect (mortality or growth inhibition) at 200 ppm", "setting": "Diabrotica balteata", "value": "≥ 80", "unit": "%"}, {"measurement": "mortality at 12 ppm", "setting": "Myzus persicae [2]", "value": "≥ 80", "unit": "%"}, {"measurement": "mortality at 200 ppm", "setting": "Myzus persicae [3]", "value": "≥ 80", "unit": "%"}]}, {"smiles": "C[C@H](Nc1ncnc2c(Cl)cc(C(F)(F)F)cc12)c1ncnn1-c1ncccn1", "note": "[WO 21/083936 P.18, reference compound]", "values": [{"measurement": "mortality at 3 ppm", "setting": "Pseudoplusia includens; Pseudoplusia includens, 3 ppm", "value": 40, "unit": "%"}, {"measurement": "mortality at 200 ppm", "setting": "Euschistus heros", "value": 0, "unit": "%"}, {"measurement": "mortality at 0.8 ppm", "setting": "Plutella xylostella [4]", "value": 65, "unit": "%"}]}]}
